PMC7660650, “Chemical Starting Matter for HNF4α Ligand Discovery and Chemogenomics” (International Journal of Molecular Sciences, 2020)
“And” between values parts separate entries of the source, which are not always exact repeats. Equal values may be shown once. Read-outs that look alike come from different tables or passages of the source.

Target: T1, Gal4-HNF4α (human HNF4α LBD) (Homo sapiens, UniProt P41235)
T1 construct: uniprot entry: P41235-1, residues 142-377; expressed in transfected cells; host or cells: HEK293T
T1 sequence (P41235 142-377): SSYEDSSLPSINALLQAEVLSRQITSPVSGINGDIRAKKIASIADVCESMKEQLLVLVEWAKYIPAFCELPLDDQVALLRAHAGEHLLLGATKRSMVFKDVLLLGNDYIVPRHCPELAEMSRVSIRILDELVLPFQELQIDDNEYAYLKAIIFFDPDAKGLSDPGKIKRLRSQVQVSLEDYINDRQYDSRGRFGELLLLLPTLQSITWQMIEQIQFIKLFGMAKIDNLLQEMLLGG
Assay: Hybrid Gal4-HNF4α reporter gene assay in transiently transfected HEK293T cells
Type: cell-based

[1] = Table S1, primary screening, 50 µM

SMILES	HNF4a-screening_activity_(mean_of_n=2) [1]	HNF4a-screening_activity_(mean_of_n=2)
CN(C)C(=O)Oc1ccccc1 [Prestw-Frag-1540, CN(C)C(=O)Oc1ccccc1]	1.182	–
COc1ccc(Cc2ccc(OC)cc2)cc1 [Prestw-Frag-1033, COc1ccc(Cc2ccc(OC)cc2)cc1]	1.259 and 1.114	–
Nc1nncs1 [Prestw-Frag-1009, Nc1nncs1]	1.011	–
CCN(CC)CCOC(=O)C1(c2ccccc2)CCCC1 [Prestw-Frag-2774, CCN(CC)CCOC(=O)C1(CCCC1)c1ccccc1]	1.226	–
CC(=O)NCc1cccnc1 [Prestw-Frag-1745, CC(=O)NCc1cccnc1]	0.9231 and 1.026	–
CC(C)(C)NCC(O)COc1ccccc1C1CCCC1 (centres unmarked) [Prestw-Frag-0674, CC(C)(C)NCC(O)COc1ccccc1C1CCCC1]	1.434	–
Nc1nc2ccccc2n1Cc1ccc(F)cc1 [Prestw-Frag-1050, Nc1nc2ccccc2n1Cc1ccc(F)cc1]	0.6752 and 1.069	–
NCCCCc1ccccc1 [Prestw-Frag-1031, NCCCCc1ccccc1]	1.332	–
Cc1n[nH]c(C)c1N [Prestw-Frag-3724, Cc1n[nH]c(C)c1N]	0.9198	–
OCCCN1CCN(c2ccccc2)CC1 [Prestw-Frag-1944, OCCCN1CCN(CC1)c1ccccc1]	1.133	–
O=C(CCN1CCCCC1)c1ccccc1 [Prestw-Frag-1953, O=C(CCN1CCCCC1)c1ccccc1]	0.8568	–
c1cc2c(cc1OC[C@H]1CCCNC1)OCO2 [Prestw-Frag-2789, C(Oc1ccc2OCOc2c1)[C@H]1CCCNC1]	1.15	–
CC(C)C1NCCc2c1[nH]c1ccccc21 (centres unmarked) [Prestw-Frag-1264, CC(C)C1NCCc2c1[nH]c1ccccc21]	1.008	–
c1cc(N2CCNCC2)ncn1 [Prestw-Frag-3729, C1CN(CCN1)c1ccncn1]	1.017	–
O=c1[nH]ncc2ccccc12 [Prestw-Frag-1560, O=c1[nH]ncc2ccccc12]	1.119	–
O=C1CC2(CCCC2)CC(=O)N1 [Prestw-Frag-3680, O=C1CC2(CCCC2)CC(=O)N1]	0.8965	–
CCCC(=O)Nc1cccc(C(C)=O)c1 [Prestw-Frag-1717, CCCC(=O)Nc1cccc(c1)C(C)=O]	0.9496 and 0.8871	–
Cc1cc(C(C)(C)C)cc(C)c1CC1=NCCN1 [Prestw-Frag-1575, Cc1cc(cc(C)c1CC1=NCCN1)C(C)(C)C]	1.056	–
O=c1[nH]cncc1-c1ccccc1 [Prestw-Frag-3734, O=c1[nH]cncc1-c1ccccc1]	1.236	–
NC1=NCCN1 [Prestw-Frag-1268, NC1=NCCN1]	1.024	–
c1ccc(-n2cccn2)cc1 [Prestw-Frag-3759, c1cnn(c1)-c1ccccc1]	1.212	–
Cn1c(=O)[nH]c2nc[nH]c2c1=O [Prestw-Frag-1138, Cn1c(=O)[nH]c2nc[nH]c2c1=O]	0.9492	–

SMILES	HNF4a-screening_activity_(mean_of_n=2) [1]	HNF4a-screening_activity_(mean_of_n=2)
Oc1ccc2cc[nH]c2c1 [Prestw-Frag-1374, Oc1ccc2cc[nH]c2c1]	1.128	–
Nc1nc(N)nc(-c2ccccc2)n1 [Prestw-Frag-3190, Nc1nc(N)nc(n1)-c1ccccc1]	0.8184	–
NNC(=O)c1ccncc1 [Prestw-Frag-1419, NNC(=O)c1ccncc1]	0.9909	–
NCCOC(c1ccc(F)cc1)c1ccc(F)cc1 [Prestw-Frag-1925, NCCOC(c1ccc(F)cc1)c1ccc(F)cc1]	1.095 and 1.195	–
c1cnccn1 [Prestw-Frag-2501, c1cnccn1]	1.207	–
Oc1nsnc1N1CCOCC1 [Prestw-Frag-2562, Oc1nsnc1N1CCOCC1]	1.981	–
OC(c1ccccc1)c1ccccn1 (centres unmarked) [Prestw-Frag-2238, OC(c1ccccc1)c1ccccn1]	0.8728	–
CCNC(=O)c1cccnc1 [Prestw-Frag-2794, CCNC(=O)c1cccnc1]	1.068	–
c1ccc(CCn2ccnc2)cc1 [Prestw-Frag-2608, C(Cn1ccnc1)c1ccccc1]	0.9707	–
Clc1ccc(C(c2ccccc2)N2CCNCC2)cc1 (centres unmarked) [Prestw-Frag-1741, Clc1ccc(cc1)C(N1CCNCC1)c1ccccc1]	1.086	–
Cc1ncsc1CCO [Prestw-Frag-1098, Cc1ncsc1CCO]	1.111	–
FC(F)(F)c1cc[nH]n1 [Prestw-Frag-3726, FC(F)(F)c1cc[nH]n1]	0.9056	–
OCc1ccc(O)cc1 [Prestw-Frag-2532, OCc1ccc(O)cc1]	1.028	–
c1ccc(C(c2ccccc2)n2ccnc2)cc1 [Prestw-Frag-2868, c1cn(cn1)C(c1ccccc1)c1ccccc1]	0.7887	–
OC1(c2ccc(Cl)cc2)CCNCC1 [Prestw-Frag-1365, OC1(CCNCC1)c1ccc(Cl)cc1]	0.8125	–
Cn1ccc(=O)[nH]1 [Prestw-Frag-3664, Cn1ccc(=O)[nH]1]	1.182	–
CC(N)COc1ccccc1 (centres unmarked) [Prestw-Frag-1691, CC(N)COc1ccccc1]	0.7151 and 1.122	–
Cc1nnc(N)s1 [Prestw-Frag-1161, Cc1nnc(N)s1]	1.123	–
Cn1c(N)nc2ccccc21 [Prestw-Frag-3740, Cn1c(N)nc2ccccc12]	1.19	–
NCCCCN1CCN(c2ncccn2)CC1 [Prestw-Frag-2921, NCCCCN1CCN(CC1)c1ncccn1]	1.125	–
Clc1ccc(Cn2cnc3ccccc32)cc1 [Prestw-Frag-1165, Clc1ccc(Cn2cnc3ccccc23)cc1]	0.6294 and 0.7204	–
Nc1cccc(O)c1 [Prestw-Frag-2826, Nc1cccc(O)c1]	1.072	–

SMILES	HNF4a-screening_activity_(mean_of_n=2) [1]	HNF4a-screening_activity_(mean_of_n=2)
CCN(CC)CCOc1ccc(C(C)=O)cc1 [Prestw-Frag-2005, CCN(CC)CCOc1ccc(cc1)C(C)=O]	1.006	–
Nc1cccc(Nc2ncccn2)c1 [Prestw-Frag-2935, Nc1cccc(Nc2ncccn2)c1]	1.004	–
c1ccc2c(c1)CCNCC2 [Prestw-Frag-3750, C1Cc2ccccc2CCN1]	1.099	–
NCCc1ccc(S(N)(=O)=O)cc1 [Prestw-Frag-1076, NCCc1ccc(cc1)S(N)(=O)=O]	1.134 and 1.077	–
NCC(CC(=O)O)c1ccccc1 (centres unmarked) [Prestw-Frag-1125, NCC(CC(O)=O)c1ccccc1]	0.6886	–
CN(C)CCCC(=O)c1ccc(F)cc1 [Prestw-Frag-3693, CN(C)CCCC(=O)c1ccc(F)cc1]	1.093	–
Nc1cc2ccccc2oc1=O [Prestw-Frag-1001, Nc1cc2ccccc2oc1=O]	–	0.9336 and 1.001
CCC(=O)Nc1ccc(CC(=O)O)cc1 [Prestw-Frag-2362, CCC(=O)Nc1ccc(CC(O)=O)cc1]	0.9958	–
CCOc1ccccc1O [Prestw-Frag-2995, CCOc1ccccc1O]	0.8201	–
COc1ccc(CN2CCNCC2)cc1 [Prestw-Frag-2212, COc1ccc(CN2CCNCC2)cc1]	1.195	–
COc1ccc2c(c1)CCCC2 [Prestw-Frag-3188, COc1ccc2CCCCc2c1]	0.8877	–
CCCC(=O)c1ccc(F)cc1 [Prestw-Frag-1368, CCCC(=O)c1ccc(F)cc1]	1.103	–
Clc1cccc(CN2CCNCC2)c1 [Prestw-Frag-1700, Clc1cccc(CN2CCNCC2)c1]	1.014 and 1.092	–
OCCc1ccc(Cl)cc1 [Prestw-Frag-3062, OCCc1ccc(Cl)cc1]	0.9659	–
CN1CCN(CCCC(=O)c2ccc(F)cc2)CC1 [Prestw-Frag-3692, CN1CCN(CCCC(=O)c2ccc(F)cc2)CC1]	1.385	–
CN1CCN(c2ccccc2)CC1 [Prestw-Frag-1946, CN1CCN(CC1)c1ccccc1]	1.048	–
O=c1[nH]c2ccccc2o1 [Prestw-Frag-1087, O=c1[nH]c2ccccc2o1]	1.002 and 1.32	–
COc1ccc(N2CCN(c3ccc(N)cc3)CC2)cc1 [Prestw-Frag-1557, COc1ccc(cc1)N1CCN(CC1)c1ccc(N)cc1]	1.098	–
CC1CCC(=O)O1 (centres unmarked) [Prestw-Frag-3757, CC1CCC(=O)O1]	1.285	–
CNC(C)(C)Cc1ccccc1 [Prestw-Frag-1141, CNC(C)(C)Cc1ccccc1]	1.206	–
c1ccc2c3c([nH]c2c1)CCCC3 [Prestw-Frag-2780, C1CCc2c(C1)[nH]c1ccccc21]	–	0.7267
